Reference: ChEMBL document CHEMBL1201862, “PubChem BioAssay data set” (2004)
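Protocol summary: plate cells (96-well), add compound at 5 concentrations, incubate 48 h, interpolate endpoints linearly. Abbreviation: GI50, concentration required for 50% inhibition of growth.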 Active and inactive are the calls of the source. No stated cut-off is given here; in the data, active = GI50 up to about 1.1 µM and inactive = higher.

Assays:
Assay in all cases: NCI tumour cell line growth inhibition, 48 h
[1] = tested on: SF-539
[2] = tested on: A549
[3] = tested on: 786-0
[4] = tested on: SK-MEL-5
[5] = tested on: SR
[6] = tested on: MOLT-4
[7] = tested on: NCI-H23
[8] = tested on: M14
[9] = tested on: HOP-92
[10] = tested on: OVCAR-8
[11] = tested on: A498
[12] = tested on: MDA-MB-435
[13] = tested on: UACC-62
[14] = tested on: CCRF-CEM
[15] = tested on: HL-60
[16] = tested on: K562
[17] = tested on: UACC-257
[18] = tested on: OVCAR-5
[19] = tested on: EKVX
[20] = tested on: Malme-3M
[21] = tested on: ACHN
[22] = tested on: Hs-578T
[23] = tested on: TK-10
[24] = tested on: COLO 205
[25] = tested on: MCF7
[26] = tested on: SK-MEL-28
[27] = tested on: NCI-H460
[28] = tested on: HCT-15
[29] = tested on: RXF 393
[30] = tested on: SK-MEL-2
[31] = tested on: NCI-H226
[32] = tested on: RPMI-8226
[33] = tested on: LOX IMVI
[34] = tested on: SNB-75
[35] = tested on: SF-268
[36] = tested on: DU-145
[37] = tested on: KM12
[38] = tested on: NCI-H522
[39] = tested on: SNB-19
[40] = tested on: HCT-116
[41] = tested on: CAKI-1
[42] = tested on: OVCAR-4
[43] = tested on: IGROV-1
[44] = tested on: SF-295
[45] = tested on: SN12C
[46] = tested on: PC-3
[47] = tested on: UO-31
[48] = tested on: HT-29
[49] = tested on: MDA-N
[50] = tested on: T47D
[51] = tested on: OVCAR-3
[52] = tested on: SK-OV-3
[53] = tested on: U-251
[54] = tested on: HOP-62
[55] = tested on: MDA-MB-231
[56] = tested on: HCC 2998
[57] = tested on: SW-620
[58] = tested on: NCI/ADR-RES

Measured: GI50

CCN(CC)CCC1CCCCN1CC(=O)N1c2ccccc2NC(=O)c2ccccc21 (centres undefined)
inactive: [1] > 100 µM | [2] > 100 µM | [3] > 100 µM | [4] > 100 µM | [5] > 100 µM | [6] > 100 µM | [7] > 100 µM | [8] > 100 µM | [9] > 100 µM | [10] > 100 µM | [11] > 100 µM | [12] > 100 µM | [13] > 100 µM | [14] > 100 µM | [15] > 100 µM | [16] > 100 µM | [17] > 100 µM | [18] > 100 µM | [19] > 100 µM | [20] > 100 µM | [21] > 100 µM | [22] > 100 µM | [23] > 100 µM | [24] > 100 µM | [25] > 100 µM | [26] > 100 µM | [27] > 100 µM | [29] > 100 µM | [30] > 100 µM | [31] > 100 µM | [32] > 100 µM | [33] > 100 µM | [34] 6.11 µM | [35] > 100 µM | [36] > 100 µM | [37] > 100 µM | [38] > 100 µM | [39] > 100 µM | [40] > 100 µM | [41] > 100 µM | [42] > 100 µM | [43] > 100 µM | [44] > 100 µM | [45] > 100 µM | [46] > 100 µM | [47] > 100 µM | [48] > 100 µM | [49] > 100 µM | [50] > 100 µM | [51] > 100 µM | [52] > 100 µM | [53] > 100 µM | [54] > 100 µM | [55] > 100 µM | [56] > 100 µM
> 100 µM: [28]

c1csc(-c2cc(-c3cccs3)c(-c3ccsc3)s2)c1
19.2 µM: [28]
inactive: [1] > 100 µM | [2] > 100 µM | [3] > 100 µM | [4] > 100 µM | [5] > 100 µM | [6] > 100 µM | [7] > 100 µM | [8] > 100 µM | [10] > 100 µM | [11] > 100 µM | [12] > 100 µM | [13] > 100 µM | [14] > 100 µM | [15] > 100 µM | [16] > 100 µM | [17] 58.1 µM | [19] > 100 µM | [20] > 100 µM | [21] > 100 µM | [22] > 100 µM | [23] > 100 µM | [24] 55.5 µM | [25] 24.7 µM | [26] > 100 µM | [27] > 100 µM | [30] > 100 µM | [31] > 100 µM | [32] 96.2 µM | [33] > 100 µM | [34] > 100 µM | [57] > 100 µM | [35] > 100 µM | [36] > 100 µM | [37] 55.5 µM | [39] > 100 µM | [40] > 100 µM | [41] > 100 µM | [42] > 100 µM | [43] > 100 µM | [58] > 100 µM | [44] > 100 µM | [45] 56.8 µM | [46] > 100 µM | [47] > 100 µM | [48] > 100 µM | [49] > 100 µM | [50] 17.6 µM | [52] > 100 µM | [53] > 100 µM | [54] > 100 µM | [55] > 100 µM | [56] 34.2 µM

COc1ccc(C2=CC(c3ccc4c(c3)OCO4)c3c(c4ccccc4oc3=O)O2)cc1OC (centres undefined)
active: [1] 0.69 µM | [4] 0.766 µM | [5] 0.486 µM | [11] 0.91 µM | [12] 0.366 µM | [13] 0.424 µM | [15] 0.351 µM | [16] 0.415 µM | [25] 0.454 µM | [27] 1.09 µM | [29] 0.764 µM | [31] 0.546 µM | [34] 0.51 µM | [57] 0.933 µM | [38] 0.486 µM | [40] 0.824 µM | [41] 1.1 µM | [43] 0.743 µM | [44] 0.374 µM | [48] 0.536 µM | [49] 0.324 µM | [50] 0.685 µM | [52] 0.859 µM
0.546 µM: [28]
inactive: [2] 2.78 µM | [3] 1.13 µM | [6] 3.42 µM | [7] 2.51 µM | [8] 3.54 µM | [10] 3.53 µM | [14] 2.49 µM | [17] > 100 µM | [18] 4.85 µM | [19] 4.16 µM | [20] > 81.8 µM | [21] 1.5 µM | [22] 1.65 µM | [23] 2.75 µM | [24] 1.51 µM | [26] > 55.2 µM | [32] 2.64 µM | [33] 1.26 µM | [35] 5.07 µM | [36] 2.25 µM | [37] 1.76 µM | [39] 2.53 µM | [42] 98.4 µM | [58] 1.41 µM | [45] 5.56 µM | [46] 2.42 µM | [47] 2.55 µM | [53] 1.98 µM | [54] 1.44 µM | [55] 4.02 µM | [56] 1.46 µM
